These results are taken from patent US12129244B2, “Modulators of Mas-related G-protein receptor X2 and related products and methods” (Escient Pharmaceuticals, Inc., priority 2022, dated 2024).

A value given as a limit tells only on which side of the number the result lay.

The target in the assay is T1, human MRGPRX2 (Homo sapiens, UniProt Q96LB1).
T1 construct: expressed in transfected cells
T1 sequence (Q96LB1 1-330): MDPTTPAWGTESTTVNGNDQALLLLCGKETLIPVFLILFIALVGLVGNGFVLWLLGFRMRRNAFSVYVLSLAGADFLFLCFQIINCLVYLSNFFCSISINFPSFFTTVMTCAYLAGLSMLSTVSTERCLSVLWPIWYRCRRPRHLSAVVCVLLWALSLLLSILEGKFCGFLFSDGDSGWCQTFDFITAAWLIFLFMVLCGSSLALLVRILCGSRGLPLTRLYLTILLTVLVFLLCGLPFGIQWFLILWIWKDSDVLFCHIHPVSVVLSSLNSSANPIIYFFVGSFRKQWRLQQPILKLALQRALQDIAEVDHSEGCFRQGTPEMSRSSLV
The experiment in a line: MRGPRX2 activity: IP-One HTRF antagonist assay in CHO cells versus Cortistatin-14. Format: cell-based. The settings on record: CHO cells stably expressing human MRGPRX2; versus 0.3 uM Cortistatin-14 agonist; IP-1 HTRF. The method, then:
CHO cells stably transfected to express human MRGPRX2 were maintained in an incubator at 37° C. with 5% CO2 and grown in F12 (HAM) media with 10% fetal bovine serum (FBS), 1% Glutamax, 1% penicillin/streptomycin, 800 μg/mL Geneticin (G418), and 300 μg/mL Hygromycin B.
Cells were plated in a 384-well assay plate at 20,000 cells per well in 12 μL of Opti-MEM and kept in an incubator overnight. On the day of the assay, compounds solubilized at 10 mM in DMSO were added as a 10-point curve (30 uM final top concentration with 1:3 serial dilutions) using a Tecan D300E digital dispenser. Agonists were diluted in assay buffer (final concentrations of 5.7 mM Tris-HCl, 43 mM NaCl, 50 mM LiCl, pH=8) and 2 μL of the agonist Cortistatin-14 (CPC Scientific, catalog CORT-002) are added to each well. Final concentrations of agonists were 0.3 μM Cortistatin. Final concentrations of DMSO were kept consistent across the plate. Plates were incubated in the dark for 1 h at 37° C. and then for 1 h at room temperature. IP-1 standards and HTRF detection reagents were added according to the IP-One-Gq Kit purchased from Cisbio (part number 62IPAPEJ) and incubated in the dark for 1 h at room temperature. The plate was read on a Molecular Devices SpectraMax iD5 plate reader. The HTRF ratio was calculated from the raw data and graphed using GraphPad Prism to calculate an IC50 value for each compound.
The activity ranges are denoted as follows: “+++++” denotes antagonist activity <100 nM; “++++” denotes antagonist activity between 100 and 500 nM; “+++” denotes activity between 501 and 1000 nM; “[…]” denotes activity between 1001 and 2500 nM; and “+” denotes activity >2500 nM
(In TR-FRET formats the signal depends on donor and acceptor labels being close together.)

The term IC50 denotes the point on the concentration scale where inhibition reaches its midpoint. On to `O=C(N[C@@H]1CCC[C@H](Nc2cc(C(F)(F)F)nc3ccccc23)C1)C1COCCN1Cc1ccccc1` (mixture of isomers) [Example 4-31], for which the IC50 is > 2500 nM.
For `CC1C(C(=O)N[C@@H]2CCC[C@H](Nc3cc(C(F)(F)F)nc4ccccc34)C2)CC2CC1C2(C)C` (mixture of isomers) [Example 4-64], the IC50 is > 2500 nM.
`O=C(CCc1cc(Br)ccc1F)N[C@@H]1CCC[C@H](Nc2cc(C(F)(F)F)nc3ccccc23)C1` (racemic) [Example 4-74]: the IC50 was > 2500 nM.
Under `O=C(CCc1ccc(Cl)c(F)c1)N[C@@H]1CCC[C@H](Nc2cc(C(F)(F)F)nc3ccccc23)C1` (racemic) [Example 4-82] stands > 2500 nM; under `O=C(N[C@@H]1CCC[C@H](Nc2cc(C(F)(F)F)nc3ccccc23)C1)c1coc2ccccc2c1=O` (racemic) [Example 4-111], > 2500 nM.
Under `O=C(N[C@@H]1CCC[C@H](Nc2cc(C(F)(F)F)nc3ccccc23)C1)c1ccccc1Oc1ccccc1` (racemic) [Example 4-113] stands > 2500 nM.
`COC(=O)c1cccc(C(=O)N[C@@H]2CCC[C@H](Nc3cc(C(F)(F)F)nc4ccccc34)C2)c1` [Example 3-5] showed a concentration for half-maximal inhibition (IC50) of 100 to 500 nM.
Consider `O=C(N[C@@H]1CCC[C@H](Nc2cc(C(F)(F)F)nc3ccc(Cl)cc23)C1)c1ccc(C(=O)N2CCOCC2)cc1` [Example 3-20], for which the half-inhibitory concentration (IC50) was < 100 nM.
In the case of `CCc1ccc(C(=O)N[C@@H]2CCC[C@H](Nc3cc(C(F)(F)F)nc4ccccc34)C2)cc1` [Example 4-18], the IC50 was 100 to 500 nM.
As to `CNc1ccc(C(=O)N[C@@H]2CCC[C@H](Nc3cc(C(F)(F)F)nc4ccc(C)cc34)C2)cc1` [Example 4-130], the 50% inhibitory concentration (IC50) is < 100 nM.
Under `Cc1ccc2nc(C(F)(F)F)cc(N[C@H]3CCC[C@@H](NC(=O)c4cccc(N(C)C)c4)C3)c2c1` [Example 4-159] stands 100 to 500 nM.
For `CNc1ccccc1C(=O)N[C@@H]1CCC[C@H](Nc2cc(C(F)(F)F)nc3ccc(C)cc23)C1` [Example 4-165], the half-maximal inhibitory concentration (IC50) fell in the range of 501 to 1000 nM.
Under `C=CC12CCC(C(=O)N[C@@H]3CCC[C@H](Nc4cc(C(F)(F)F)nc5ccccc45)C3)(CC1)CO2` [Example 4-171] stands 501 to 1000 nM; under `O=C(N[C@@H]1CCC[C@H](Nc2cc(C(F)(F)F)nc3ccccc23)C1)c1ccc2[nH]c(-c3ccncc3)nc2c1` [Example 4-181], 100 to 500 nM; under `CN(C)c1cccc(C(=O)N[C@@H]2CCC[C@H](Nc3cc(C(F)(F)F)nc4ccc(Cl)cc34)C2)c1` [Example 4-216], 100 to 500 nM.
The result for `O=C(N[C@@H]1CCC[C@H](Nc2cc(C(F)(F)F)nc3ccc(Cl)cc23)C1)c1cccc2[nH]ccc12` [Example 4-223] reads < 100 nM; that for `CC(C)S(=O)(=O)Nc1cccc(C(=O)N[C@@H]2CCC[C@H](Nc3cc(C(F)(F)F)nc4ccc(Cl)cc34)C2)c1` [Example 4-228], < 100 nM; that for `CS(=O)(=O)Nc1ccc(C(=O)N[C@@H]2CCC[C@H](Nc3cc(C(F)(F)F)nc4ccc(Cl)cc34)C2)cc1` [Example 4-240], < 100 nM.
Consider `O=C(N[C@@H]1CCC[C@H](Nc2cc(C(F)(F)F)nc3ccc(Cl)cc23)C1)c1ccc2nncn2c1` [Example 4-245], for which the IC50 was < 100 nM.
As for `O=C(N[C@@H]1CCC[C@H](Nc2cc(C(F)(F)F)nc3ccc(Cl)cc23)C1)c1cccc(Cl)c1` [Example 4-249], the half-maximal inhibitory concentration (IC50) lay in the range of 100 to 500 nM.
On to `CS(=O)(=O)Nc1cc(C(=O)N[C@@H]2CCC[C@H](Nc3cc(C(F)(F)F)nc4ccc(Cl)cc34)C2)ccc1F` [Example 4-258], for which the IC50 is < 100 nM.
Under `O=C(N[C@@H]1CCC[C@H](Nc2cc(C(F)(F)F)nc3ccc(Cl)cc23)C1)c1ccnc2cn[nH]c12` [Example 4-263] stands < 100 nM; under `Cc1cn2cc(C(=O)N[C@@H]3CCC[C@H](Nc4cc(C(F)(F)F)nc5ccc(Cl)cc45)C3)ccc2n1` [Example 4-265], < 100 nM.
Under `O=C(N[C@@H]1CCC[C@H](Nc2cc(C(F)(F)F)nc3ccc(Cl)cc23)C1)c1cc(O)cc(O)c1` [Example 4-271] stands < 100 nM; under `CC(C#N)c1cccc(C(=O)N[C@@H]2CCC[C@H](Nc3cc(C(F)(F)F)nc4ccc(F)cc34)C2)c1` (stereo partly drawn) [Example 4-282], < 100 nM; under `O=C(N[C@@H]1CCC[C@H](Nc2cc(C(F)(F)F)nc3ccc(F)cc23)C1)c1cccc(O)c1` [Example 4-284], < 100 nM.
Regarding `CC(C)S(=O)(=O)Nc1cccc(C(=O)N[C@@H]2CCC[C@H](Nc3cc(C(F)(F)F)nc4ccc(F)cc34)C2)c1` [Example 4-297], the IC50 is < 100 nM.
With `CS(=O)(=O)Nc1cccc(C(=O)N[C@@H]2CCC[C@H](Nc3cc(C(F)(F)F)nc4ccc(F)cc34)C2)c1` [Example 4-302], the IC50 was < 100 nM.
Under `CS(=O)(=O)Nc1ccc(C(=O)N[C@@H]2CCC[C@H](Nc3cc(C(F)(F)F)nc4ccc(F)cc34)C2)cc1` [Example 4-317] stands < 100 nM; under `CCCn1nccc1C(=O)N[C@@H]1CCC[C@H](Nc2cc(C(F)(F)F)nc3ccc(F)cc23)C1` [Example 4-325], 100 to 500 nM.
Consider `O=C(N[C@@H]1CCC[C@H](Nc2cc(C(F)(F)F)nc3ccc(Cl)cc23)C1)c1c[nH]cc1C(F)(F)F` [Example 4-394], for which the IC50 was < 100 nM.
Under `O=C(N[C@@H]1CCC[C@H](Nc2cc(C(F)(F)F)nc3ccc(Cl)cc23)C1)c1cnn(CCCl)c1` [Example 4-396] stands < 100 nM; under `O=C(N[C@@H]1CCC[C@H](Nc2cc(C(F)(F)F)nc3ccc(Cl)cc23)C1)c1ccn2cnnc2c1` [Example 4-397], < 100 nM; under `O=C(N[C@@H]1CCC[C@H](Nc2cc(C(F)(F)F)nc3ccc(Cl)cc23)C1)c1cncc2cn[nH]c12` [Example 4-398], < 100 nM.
The result for `Cc1nn(C)cc1C(=O)N[C@@H]1CCC[C@H](Nc2cc(C(F)(F)F)nc3ccc(Cl)cc23)C1` [Example 4-401] reads < 100 nM; that for `Cn1cc(C(=O)N[C@@H]2CCC[C@H](Nc3cc(C(F)(F)F)nc4ccc(Cl)cc34)C2)c(C(F)F)n1` [Example 4-404], < 100 nM.
Under `O=C(N[C@@H]1CCC[C@H](Nc2cc(C(F)(F)F)nc3ccc(Cl)cc23)C1)c1cn[nH]c1C1CC1` [Example 4-405] stands < 100 nM; under `O=C(N[C@@H]1CCC[C@H](Nc2cc(C(F)(F)F)nc3ccc(Cl)cc23)C1)c1cn(C(F)F)nc1Cl` [Example 4-406], < 100 nM.
Turning to `O=C(N[C@@H]1CCC[C@H](Nc2cc(C(F)(F)F)nc3ccc(Cl)cc23)C1)c1cnn(C2COC2)c1` [Example 4-407], the IC50 is < 100 nM.
Consider `N#Cc1cc(C(=O)N[C@@H]2CCC[C@H](Nc3cc(C(F)(F)F)nc4ccc(Cl)cc34)C2)c[nH]1` [Example 4-408], for which the IC50 was < 100 nM.
Under `CN(C)Cc1ccc(C(=O)N[C@@H]2CCC[C@H](Nc3cc(C(F)(F)F)nc4ccc(Cl)cc34)C2)cc1` [Example 4-410] stands < 100 nM.
The result for `Cn1c(C(=O)N[C@@H]2CCC[C@H](Nc3cc(C(F)(F)F)nc4ccc(Cl)cc34)C2)cnc1Cl` [Example 4-412] reads < 100 nM; that for `CNc1cc(C(=O)N[C@@H]2CCC[C@H](Nc3cc(C(F)(F)F)nc4ccc(Cl)cc34)C2)ccc1OC` [Example 4-413], < 100 nM.
For the molecule `O=C(N[C@@H]1CCC[C@H](Nc2cc(C(F)(F)F)nc3ccc(Cl)cc23)C1)c1ccc(N2CC2)cc1` [Example 4-415], the IC50 was < 100 nM.
For `Cn1ccc(C(=O)N[C@@H]2CCC[C@H](Nc3cc(C(F)(F)F)nc4ccc(Cl)cc34)C2)c1` [Example 4-416], the IC50 was < 100 nM.
Take `Cc1cn(C)cc1C(=O)N[C@@H]1CCC[C@H](Nc2cc(C(F)(F)F)nc3ccc(Cl)cc23)C1` [Example 4-417]: the IC50 was < 100 nM.
The result for `Nc1cnc(Cl)c(C(=O)N[C@@H]2CCC[C@H](Nc3cc(C(F)(F)F)nc4ccc(Cl)cc34)C2)c1` [Example 4-418] reads < 100 nM; that for `Cc1cc(C(=O)N[C@@H]2CCC[C@H](Nc3cc(C(F)(F)F)nc4ccc(Cl)cc34)C2)co1` [Example 4-419], < 100 nM.
The result for `O=C(N[C@@H]1CCC[C@H](Nc2cc(C(F)(F)F)nc3ccc(Cl)cc23)C1)c1ncco1` [Example 4-424] reads < 100 nM; that for `O=C(N[C@@H]1CCC[C@H](Nc2cc(C(F)(F)F)nc3ccc(Cl)cc23)C1)c1ccon1` [Example 4-425], < 100 nM.
Turning to `Cc1cc(C(=O)N[C@@H]2CCC[C@H](Nc3cc(C(F)(F)F)nc4ccc(Cl)cc34)C2)c(C)[nH]1` [Example 4-426], the IC50 is < 100 nM.
